Values of other authors in US20190336443A1 (Navinta III Inc, priority 2018, published 2019).

Key:
[1] = all animal species with adequate studies (rodents and rabbits)
[2] = pH sensitive

For `NC(=O)c1ncn([C@@H]2O[C@H](CO)[C@@H](O)[C@H]2O)n1` [Ribavirin, 1-beta-D-ribofuranosyl-1H-1,2,4-triazole-3-carboxamide], the “teratogenic and/or embryocidal potential” value [1] is given as “significant teratogenic and/or embryocidal potential”, the “degradation in a liquid formulation” value [2] is given as “readily degraded by hydrolysis” and the solubility in ethanol is given as “slight solubility”.
